Structures are written as SMILES.

One test relates to E. coli. The test is described as follows: Kit plate disk-quarter diffusion AST, mixed culture. The format is cell-based. The following applies: mixed culture with Staph. aureus, Cephalothin chamber 70', region confirmed by gram stain, FIG. 37. An excerpt:
(§1) FIGS. 37A to 37C illustrates the growth of two microorganisms, Staph. aureus and E. coli, on the same preferred embodiment kit plate. FIGS. 37B and 37C are two different views of an enlargement of the AST test chambers (67′-70′ and 72′-75′). FIG. 37B viewed with back lighting. FIG. 37C viewed with front lighting. Two AST test chambers are featured in these figures: Mueller Hinton agar plus antimicrobial Cephalothin chamber 70′ and Mueller Hinton agar plus antimicrobial Enrofloxicin chamber 73′. Two margins are observable in each chamber: E coli & cephalothin margin 180 and Staph. aureus & cephalothin margin 181 for Cephalothin chamber 70′; and Staph. aureus & Enrofloxicin margin 182 and E. coli & Enrofloxicin margin 183 for Enrofloxicin chamber 73′. The region 176A is between the E. coli margin 180 and Staph. aureus margin 181 in Cephalothin chamber 70′. The region 178A is between the Staph. aureus margin 182 and the E. coli margin 183 in Enrofloxicin chamber 73′. Illustrated in FIG. 38 are two gram stains 176B and 178B of a sample from regions 176A and 178A respectively.
(§2) […] of this dilution is added per chamber. FIG. 17 illustrates the first chamber of the top two rows inoculated using dilution 140. Eighty micro liters of dilution 140 is added per chamber to the ten upper test chambers. […]

Another test concerns Staph. aureus. Described as above. It is filed as cell-based. The following applies: mixed culture with E. coli, Enrofloxicin chamber 73', region confirmed by gram stain, FIG. 37.
Source text: as §1, §2

On to `CC(=O)OCC1=C(C(=O)O)N2C(=O)[C@@H](NC(=O)Cc3cccs3)[C@H]2SC1` [Cephalothin], for which, in the test with E. coli, the “AST result in growth region 176A, between margins 180 and 181” value is given as “resistance”. As for `CCN1CCN(c2cc3c(cc2F)c(=O)c(C(=O)O)cn3C2CC2)CC1` [Enrofloxicin], in the test on Staph. aureus, the “AST result in growth region 178A, between margins 182 and 183” value is listed as “resistance”.

The values are drawn from US20030124643A1, “Method and kit forrapid concurrent identification and antimicrobial susceptibility testing of microorganisms from broth culture” (priority 2001, published 2003).
